Source: patent US10213428B2, “(4-((3R,4R)-3-methoxytetrahydro-pyran-4-ylamino)piperidin-1-yl)(5-methyl-6-(((2R,6S)-6-(p-tolyl)tetrahydro-2H-pyran-2-yl)methylamino)pyrimidin-4-yl)methanone citrate” (Centrexion Therapeutics Corporation, priority 2015, dated 2019)

What was measured:
[1] = In vitro plasma protein binding (equilibrium dialysis), minipig; type: in vitro ADME; conditions: pH 7.4, dialysis 2 hours at 37° C., read-out: Fraction bound (converted)
Experimental: Dianorm Teflon dialysis cells (micro 0.2) are used. Each cell consists of a donor (i.e., buffer chamber) and an acceptor chamber (i.e., plasma chamber), separated by an ultrathin semipermeable membrane with a 5 kDa molecular weight cutoff. Stock solutions for each test compound are prepared in DMSO at 1 mM and diluted to a final concentration of 1.0 μM. Aliquots of 200 μL dialysis buffer (100 mM potassium phosphate, pH 7.4) are dispensed into the buffer chamber. Aliquots of 200 μL test compound dialysis solution are dispensed into the plasma chambers. Incubation is carried out for 2 hours under rotation at 37° C. Then, the dialysate is transferred into reaction tubes. The tubes for the buffer fraction contain 0.2 mL acetonitril/water (80/20 volume/volume). Aliquots of 25 μL of the plasma dialysate are transferred into deep well plates and mixed with 25 μL acetonitril/water (80/20 volume/volume), 25 μL buffer, 25 μL calibration solution and 25 μL Internal Standard solution. Protein precipitation is done by adding 200 μL acetonitrile. Aliquots of 50 μL of the buffer dialysate are transferred into deep well plates and mixed with 25 μL blank plasma, 25 μL Internal Standard solution and 200 μL acetonitril. Percent bound is calculated with the formula: % bound=(plasma concentration−buffer concentration/plasma concentration)×100.

hERG = molecular target: T1, hERG (Homo sapiens, UniProt Q12809); assay: hERG-channel assay (whole-cell patch clamp, HEK293 cells transfected with hERG cDNA); type: cell-based; conditions: human, HEK293 cells stably transfected with hERG cDNA, pH 7.4, read-out: inhibition of hERG-mediated potassium current
T1 construct: expressed in transfected cells
T1 sequence (Q12809 whole entry): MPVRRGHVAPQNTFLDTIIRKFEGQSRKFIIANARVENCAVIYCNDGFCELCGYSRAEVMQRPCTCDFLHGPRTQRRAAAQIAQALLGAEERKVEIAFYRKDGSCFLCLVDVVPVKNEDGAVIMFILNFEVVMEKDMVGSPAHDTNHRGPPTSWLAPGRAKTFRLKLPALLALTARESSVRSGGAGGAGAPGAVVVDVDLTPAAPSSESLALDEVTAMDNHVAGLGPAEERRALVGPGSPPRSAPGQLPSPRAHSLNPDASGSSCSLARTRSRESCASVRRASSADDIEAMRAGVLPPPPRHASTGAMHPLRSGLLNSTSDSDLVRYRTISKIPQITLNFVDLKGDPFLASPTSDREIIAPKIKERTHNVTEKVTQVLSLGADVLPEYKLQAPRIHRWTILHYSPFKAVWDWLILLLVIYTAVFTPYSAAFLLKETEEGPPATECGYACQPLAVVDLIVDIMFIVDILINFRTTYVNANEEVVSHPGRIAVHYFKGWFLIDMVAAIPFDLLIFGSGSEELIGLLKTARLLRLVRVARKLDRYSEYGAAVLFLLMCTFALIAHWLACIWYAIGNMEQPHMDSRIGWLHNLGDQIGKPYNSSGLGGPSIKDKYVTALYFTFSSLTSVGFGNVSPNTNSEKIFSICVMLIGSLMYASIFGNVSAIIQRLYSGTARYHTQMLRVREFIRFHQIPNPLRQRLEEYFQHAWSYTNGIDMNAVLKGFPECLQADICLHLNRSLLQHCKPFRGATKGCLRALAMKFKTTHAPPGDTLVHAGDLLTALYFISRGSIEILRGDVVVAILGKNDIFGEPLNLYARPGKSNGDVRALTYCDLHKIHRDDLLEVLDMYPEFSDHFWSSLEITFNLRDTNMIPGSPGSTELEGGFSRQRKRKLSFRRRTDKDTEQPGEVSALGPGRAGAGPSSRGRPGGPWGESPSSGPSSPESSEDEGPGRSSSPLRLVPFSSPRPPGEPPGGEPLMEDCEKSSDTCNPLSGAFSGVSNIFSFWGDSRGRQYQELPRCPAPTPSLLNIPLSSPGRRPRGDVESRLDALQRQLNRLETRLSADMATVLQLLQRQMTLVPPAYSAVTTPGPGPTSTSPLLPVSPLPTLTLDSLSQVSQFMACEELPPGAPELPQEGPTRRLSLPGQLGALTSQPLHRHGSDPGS
Description: (§1) HEK (human embryonic kidney) 293 cells were stably transfected with hERG cDNA. Cells determined for use in patch clamp experiments were cultivated without antibiotic.
(§2) Cells were superfused with a bath solution containing (mM): NaCl (137), KCl (4.0), MgCl2 (1.0), CaCl2 (1.8), Glucose (10), HEPES (10), pH 7.4 with NaOH. Patch pipettes were made from borosilicate glass tubing (Hilgenberg, Malsfeld, Germany) using a horizontal puller (DMZ-Universal Puller, Zeitz-Instrumente, Martinsried, Germany) and filled with pipette solution containing (mM): K-aspartate (130), MgCl2 (5.0), EGTA (5.0), K2ATP (4.0), HEPES (10.0), pH 7.2 with KOH. Resistance of the microelectrodes was in the range between 2 and 5 MΩ.
(§3) Membrane currents were recorded using an EPC-10 patch clamp amplifier (HEKA Electronics, Lambrecht, Germany) and PatchMaster software (HEKA). The current signals were Bessel filtered at 2.5 kHz before being digitized at 5 kHz.
(§4) hERG-mediated membrane currents were recorded at typically 28° C., using the whole-cell configuration of the patch-clamp technique. […] During each inter-pulse interval 4 pulses scaled down by a factor of 0.2 were recorded for a P/n leak subtraction procedure. […] The remaining uncompensated Rs was recorded as well as actual temperature and holding current.
(§5) The concentrations of the test item were applied sequentially on each of the different cells investigated. A steady state level of baseline current was measured for at least 90 s prior to the application of the first test article concentration. […]
(§6) Peak current amplitudes were measured 3 ms after the ramp to +40 mV. […] Residual currents (I/I0) were calculated for each cell as the fraction of actual average peak current and average baseline peak current. Current inhibition was expressed as (1−I/I0)*100%. […]

[2] = molecular target: T2, hERG-mediated potassium current (Homo sapiens, UniProt Q12809); assay: as above; type: cell-based; conditions: HEK293 cells, whole-cell patch clamp; read-out: IC50, inhibition of hERG-mediated potassium current
T2 construct: expressed in transfected cells
T2 sequence (Q12809 whole entry): as above
Description: as §1, §2, §3, §4, §5, §6

CO[C@H]1COCC[C@H]1NC1CCN(C(=O)c2ncnc(NC[C@H]3CCC[C@@H](c4ccc(C)cc4)O3)c2C)CC1 [compound I, (4-((3R,4R)-3-methoxytetrahydro-pyran-4-ylamino)piperidin-1-yl)(5-methyl-6-(((2R,6S)-6-(p-tolyl)tetrahydro-2H-pyran-2-yl)methylamino)pyrimidin-4-yl)methanone]
fraction unbound at 2 h, 1 μM [1]: 0.392
inhibition at 10 µM (hERG; at 10 μM): 12%
inhibition at 30 µM (hERG; at 30 μM): 28%
IC50 [2]: > 30 µM
